Structures are written as SMILES. Calls of active or inactive are those of the source. No cut-off for these calls is given here. Some results are limits rather than exact numbers.

For test [1], the target named is T1, Sphingosine kinase 2 (Homo sapiens) (UniProt Q9NRA0).
T1 sequence (whole entry): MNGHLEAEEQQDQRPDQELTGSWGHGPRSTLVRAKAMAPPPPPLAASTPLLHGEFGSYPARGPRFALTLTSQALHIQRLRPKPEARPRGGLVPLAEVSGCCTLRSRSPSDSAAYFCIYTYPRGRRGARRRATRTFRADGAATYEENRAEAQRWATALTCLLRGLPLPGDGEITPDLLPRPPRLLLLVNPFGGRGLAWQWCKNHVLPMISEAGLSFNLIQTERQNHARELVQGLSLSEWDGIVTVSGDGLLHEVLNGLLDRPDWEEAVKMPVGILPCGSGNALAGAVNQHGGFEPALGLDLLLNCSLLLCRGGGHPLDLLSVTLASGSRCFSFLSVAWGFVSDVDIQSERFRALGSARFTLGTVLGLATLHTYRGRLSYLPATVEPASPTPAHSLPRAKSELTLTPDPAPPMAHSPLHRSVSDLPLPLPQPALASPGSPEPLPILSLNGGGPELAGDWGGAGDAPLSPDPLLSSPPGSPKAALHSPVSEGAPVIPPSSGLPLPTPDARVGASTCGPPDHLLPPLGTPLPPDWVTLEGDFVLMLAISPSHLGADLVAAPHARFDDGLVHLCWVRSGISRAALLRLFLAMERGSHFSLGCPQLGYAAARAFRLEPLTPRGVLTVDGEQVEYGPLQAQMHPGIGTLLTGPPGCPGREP
The test can be described thus: Inhibition of sphingosine kinase 2 at 10 uM.

Another test addresses Sphingosine kinase 1 (Homo sapiens, UniProt Q9NYA1). As to the kind of experiment: Inhibition of human sphingosine kinase 1 by off chip mobility shift assay.

Sphingosine kinase 1, sequence (Q9NYA1 whole entry): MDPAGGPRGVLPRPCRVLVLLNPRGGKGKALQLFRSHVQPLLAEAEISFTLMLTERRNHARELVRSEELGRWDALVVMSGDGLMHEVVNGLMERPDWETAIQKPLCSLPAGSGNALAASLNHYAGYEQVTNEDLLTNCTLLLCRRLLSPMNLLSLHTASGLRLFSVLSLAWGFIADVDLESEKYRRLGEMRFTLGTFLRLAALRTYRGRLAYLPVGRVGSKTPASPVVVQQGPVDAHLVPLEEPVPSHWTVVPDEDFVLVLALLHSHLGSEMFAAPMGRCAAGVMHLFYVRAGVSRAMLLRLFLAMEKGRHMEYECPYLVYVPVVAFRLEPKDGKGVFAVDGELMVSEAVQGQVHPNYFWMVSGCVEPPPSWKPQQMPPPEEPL

For the molecule `CCCCCCCCc1ccc(CNC(=O)C(N)CCO)cc1` (racemic), the inhibition entry in test [1] is “inactive”.
Consider `CCCCCCCCc1ccc(CCNC(=O)[C@H]2NCC[C@@H]2O)cc1`, for which the IC50 at Sphingosine kinase 1 is 6.2 µM. Further, the inhibition result in test [1] was “inactive”.
On the same counts, the results for `CCCCCCCCc1ccc(NC(=O)[C@H]2NC[C@@H](O)[C@@H]2O)cc1` are 8.3 µM and “inactive”.
Take `CCCCCCCCc1ccc(NC[C@H]2NCC[C@@H]2O)cc1`: in test [1], the inhibition result was “inactive”.
With `CCCCCCCCc1ccc(NC(=O)[C@@H](N)COC)cc1`, the half-inhibitory concentration (IC50) on Sphingosine kinase 1 is > 10 µM. For the same molecule, the inhibition entry in test [1] was “inactive”.
Take `CCCCCCCCc1ccc(NC(=O)[C@H](N)[C@H](C)O)cc1`: in test [1], the inhibition entry is “inactive”.
Turning to `CCCCCCCCc1ccc(NC(=O)[C@H](CO)NC)cc1`, the inhibition result in test [1] was “inactive”.
As to `CCCCCCCCc1ccc(NC(=O)[C@@H](N)[C@H](C)O)cc1`, the inhibition entry in test [1] is “inactive”.
For the molecule `CCCCCCCCc1ccc(NC(=O)C(N)CCCO)cc1` (racemic), the IC50 on Sphingosine kinase 1 is > 10 µM. In addition, the inhibition result in test [1] is “inactive”.
Take `CCCCCCCCc1ccc(NC(=O)[C@H]2NCC[C@@H]2O)cc1`: the inhibition entry in test [1] was “inactive”.
With `CCCCCCCCc1ccc(NC(=O)C(C)(N)CO)cc1` (racemic), the IC50 at Sphingosine kinase 1 was > 10 µM. Moreover, the inhibition result in test [1] was “inactive”.
Consider `CCCCCCCCc1ccc(NC(=O)[C@H](N)CO)cc1`, for which the inhibition entry in test [1] was “inactive”.
`CCCCCCCCc1ccc(NC(=O)C(N)C(C)(C)O)cc1` (racemic): the 50% inhibitory concentration (IC50) at Sphingosine kinase 1 stood at 2.1 µM. Further, the inhibition entry in test [1] was “inactive”.
For the molecule `CCCCCCCCc1ccc(NCC(N)CCO)cc1` (configuration not stated), at Sphingosine kinase 1, the IC50 is > 10 µM. The inhibition result in test [1] was “inactive”.
On to `CCCCCCCCc1ccc(NC[C@@H](N)CO)cc1`, for which the inhibition result in test [1] was “inactive”.
Take `CCCCCCCCc1ccc(NC(=O)[C@@H](N)CCO)cc1`: in test [1], the inhibition result is “inactive”.
On to `CCCCCCCCc1ccc(NC(=O)[C@@H](N)[C@@H](C)O)cc1`, for which the IC50 on Sphingosine kinase 1 came out at 0.65 µM. Besides, the inhibition entry in test [1] was “inactive”.
The corresponding values for `CCCCCCCCc1ccc(CNC(=O)[C@H]2NCC[C@@H]2O)cc1` are 0.43 µM and “inactive”.
`CCCCCCCCc1ccc(NC(=O)[C@@H](N)CO)cc1`: the inhibition entry in test [1] is “inactive”.
Same read-out and setting: in the case of `CCCCCCCCc1ccc(NC(=O)[C@@H](N)CCCCO)cc1` it was “inactive”.
As for `CCCCCCCCc1ccc(NC(=O)[C@@H](N)[C@@H](O)CC)cc1` (racemic), the inhibition result in test [1] was “inactive”.
Still for that read-out and setting: in the case of `CCCCCCCCc1ccc(NC(=O)[C@H](N)[C@@H](C)O)cc1` it was “inactive”; in that of `CCCCCCCCc1ccc(NC(=O)[C@H](N)CCO)cc1`, “inactive”.
Regarding `CCCCCCCCc1ccc(CNC(=O)C(N)CO)cc1` (racemic), the IC50 on Sphingosine kinase 1 is > 10 µM. The inhibition result in test [1] was “inactive”.
With `CCCCCCCCc1ccc(NC(=O)C(N)CCO)cc1` (racemic), in test [1], the inhibition result is “inactive”.
With `CCCCCCCCCCCCC/C=C/[C@@H](O)[C@H](CO)N(C)C`, the inhibition entry in test [1] was “inactive”.
On the same count and under the same terms, in the case of `CCCCCCCCc1ccc(NC(=O)[C@H]2NCC[C@H]2O)cc1` it was “inactive”.

As a reminder, the IC50 is the point on the concentration scale where inhibition reaches its midpoint.

Source of the values: ChEMBL document CHEMBL1154587, “Discovery of novel sphingosine kinase 1 inhibitors” (Bioorg Med Chem Lett, 2009).
